Measured values as given in patent publication US5714467A, “Antibacterial and antimalarial hybrid peptides” (The Rockefeller University, priority 1993, dated 1998).
Where no end group is shown, it is not given here.

Test system: Sheep Red Cells
Assay: lysis of sheep red blood cells (lysis assay or SRC plate assay)
Assay type: cell-based
Settings: for Lethal concentration, SRC = Sheep Red Cells: Table 3; for concentration lytic to sheep red blood cells: running text
Procedure: These values were obtained by either the lysis assay normally used for melittin or by an adaptation of the antibacterial inhibition zone assay of the above-cited Hultmark et al articles to plates with sheep red cells (SRC). With respect to the latter, sterile agarose plates contained 6 ml of medium With 1% agarose, 0.9% NaCl and 10% SRC suspended in Alsevers solution. A dilution series of peptide was applied in 3 mm wells each loaded with 3 μl of the respective samples. The plates were incubated at 30° C. for 24 h, the zones were recorded and LC values calculated as described in the Hultmark et al articles. Clear zones were recorded after a few hours of incubation and the use of such data gave an LC value of the same order as readings after 24 h. This plate assay is faster and more convenient than the lysis assay normally used for melittin.

[1] = Table 2, no incubation footnote
[2] = Table 2, footnote a: incubation overnight at 30° C. as well as at 37° C.

| Compound | Lethal concentration, Sheep Red Cells [1] [µM] | Lethal concentration, SRC = Sheep Red Cells [µM] | other results |
| --- | --- | --- | --- |
| CC[C@H](C)[C@H](NC(=O)CNC(=O)[C@@H](NC(=O)[C@H](CCCCN)NC(=O)[C@H](CCCCN)NC(=O)[C@H](Cc1ccccc1)NC(=O)[C@H](CC(C)C)NC(=O)[C@H](CCCCN)NC(=O)[C@H](Cc1c[nH]c2ccccc12)NC(=O)[C@@H](N)CCCCN)[C@@H](C)CC)C(=O)NCC(=O)N[C@@H](C)C(=O)N[C@H](C(=O)N[C@@H](CC(C)C)C(=O)N[C@@H](CCCCN)C(=O)N[C@H](C(=O)N[C@@H](CC(C)C)C(=O)N[C@H](C(=O)N[C@H](C(=O)NCC(N)=O)[C@@H](C)O)[C@@H](C)O)C(C)C)C(C)C [CA(1-8)M(1-12)] | > 600 |  |  |
| CC[C@H](C)[C@H](NC(=O)CNC(=O)[C@@H](NC(=O)[C@H](CCCCN)NC(=O)[C@H](CCCCN)NC(=O)[C@H](Cc1ccccc1)NC(=O)[C@H](CC(C)C)NC(=O)[C@H](CCCCN)NC(=O)[C@H](Cc1c[nH]c2ccccc12)NC(=O)[C@@H](N)CCCCN)[C@@H](C)CC)C(=O)NCC(=O)N[C@@H](C)C(=O)N[C@H](C(=O)N[C@@H](CC(C)C)C(=O)N[C@@H](CCCCN)C(=O)N[C@H](C(=O)N[C@@H](CC(C)C)C(=O)N[C@H](C(=O)N[C@H](C(=O)NCC(=O)N[C@@H](CC(C)C)C(=O)N1CCC[C@H]1C(=O)N[C@@H](C)C(=O)N[C@@H](CC(C)C)C(=O)N[C@H](C(=O)N[C@@H](CO)C(N)=O)[C@@H](C)CC)[C@@H](C)O)[C@@H](C)O)C(C)C)C(C)C [CA(1-8)M(1-18)] |  | 600 |  |
| CC[C@H](C)[C@H](NC(=O)[C@H](CC(C)C)NC(=O)[C@H](C)NC(=O)[C@@H]1CCCN1C(=O)[C@H](CC(C)C)NC(=O)CNC(=O)[C@@H](NC(=O)[C@@H](NC(=O)[C@H](CC(C)C)NC(=O)[C@@H](NC(=O)[C@H](CCCCN)NC(=O)[C@H](CC(C)C)NC(=O)[C@@H](NC(=O)[C@H](C)NC(=O)CNC(=O)[C@@H](NC(=O)CNC(=O)[C@H](CCC(=O)O)NC(=O)[C@@H](NC(=O)[C@H](CCCCN)NC(=O)[C@H](CCCCN)NC(=O)[C@H](Cc1ccccc1)NC(=O)[C@H](CC(C)C)NC(=O)[C@H](CCCCN)NC(=O)[C@H](Cc1c[nH]c2ccccc12)NC(=O)[C@@H](N)CCCCN)[C@@H](C)CC)[C@@H](C)CC)C(C)C)C(C)C)[C@@H](C)O)[C@@H](C)O)C(N)=O [CA(1-9)M(1-17)] |  | 600 |  |
| CC[C@H](C)[C@H](NC(=O)CNC(=O)[C@H](CCC(N)=O)NC(=O)CNC(=O)[C@@H](NC(=O)[C@H](CCCCN)NC(=O)[C@H](CCC(=O)O)NC(=O)[C@@H](NC(=O)[C@H](CCCCN)NC(=O)[C@H](CCCCN)NC(=O)[C@H](Cc1ccccc1)NC(=O)[C@H](CC(C)C)NC(=O)[C@H](CCCCN)NC(=O)[C@H](Cc1c[nH]c2ccccc12)NC(=O)[C@@H](N)CCCCN)[C@@H](C)CC)C(C)C)C(=O)NCC(=O)N[C@@H](C)C(=O)N[C@H](C(=O)N[C@@H](CC(C)C)C(=O)N[C@@H](CCCCN)C(=O)N[C@H](C(=O)N[C@@H](CC(C)C)C(=O)N[C@H](C(=O)N[C@H](C(=O)NCC(=O)N[C@@H](CC(C)C)C(N)=O)[C@@H](C)O)[C@@H](C)O)C(C)C)C(C)C [CA(1-13)M(1-13)] |  |  | Lethal concentration, Sheep Red Cells [2]: > 200 µM; concentration lytic to sheep red blood cells: ≥ 100 µM; concentration lytic to sheep red blood cells (listed as CA(1-13) M(1-13)): greater than 200 μM |
| CC[C@H](C)[C@H](NC(=O)CNC(=O)[C@@H]1CCCN1C(=O)CNC(=O)[C@H](C)NC(=O)[C@H](CCCCN)NC(=O)[C@@H](NC(=O)[C@@H](NC(=O)CNC(=O)[C@H](CC(=O)O)NC(=O)[C@H](CCCNC(=N)N)NC(=O)[C@@H](NC(=O)[C@H](CC(N)=O)NC(=O)[C@H](CCC(N)=O)NC(=O)CNC(=O)[C@@H](NC(=O)[C@H](CCCCN)NC(=O)[C@H](CCC(=O)O)NC(=O)[C@@H](NC(=O)[C@H](CCCCN)NC(=O)[C@H](CCCCN)NC(=O)[C@H](Cc1ccccc1)NC(=O)[C@H](CC(C)C)NC(=O)[C@H](CCCCN)NC(=O)[C@H](Cc1c[nH]c2ccccc12)NC(=O)[C@@H](N)CCCCN)[C@@H](C)CC)C(C)C)[C@@H](C)CC)[C@@H](C)CC)[C@@H](C)CC)C(=O)NCC(=O)N[C@@H](C)C(=O)N[C@H](C(=O)N[C@@H](CC(C)C)C(=O)N[C@@H](CCCCN)C(=O)N[C@H](C(=O)N[C@@H](CC(C)C)C(=O)N[C@H](C(=O)N[C@H](C(=O)NCC(=O)N[C@@H](CC(C)C)C(N)=O)[C@@H](C)O)[C@@H](C)O)C(C)C)C(C)C [CA(1-24)M(1-13)] |  |  | Lethal concentration, Sheep Red Cells [2]: > 200 µM; concentration lytic to sheep red blood cells: ≥ 100 µM |
| CC[C@H](C)[C@H](NC(=O)[C@H](CCC(N)=O)NC(=O)[C@@H](NC(=O)[C@H](C)NC(=O)[C@H](CCC(N)=O)NC(=O)CNC(=O)[C@@H](NC(=O)[C@@H](NC(=O)[C@H](C)NC(=O)[C@@H](NC(=O)[C@H](C)N)C(C)C)C(C)C)C(C)C)[C@@H](C)O)C(=O)N[C@@H](C)C(=O)N[C@@H](CCCCN)C(=O)N[C@@H](CCCCN)C(=O)N[C@@H](Cc1c[nH]c2ccccc12)C(=O)N[C@@H](CCCCN)C(=O)N[C@@H](CC(C)C)C(=O)N[C@@H](Cc1ccccc1)C(=O)N[C@@H](CCCCN)C(=O)N[C@@H](CCCCN)C(=O)N[C@H](C(=O)N[C@@H](CCC(=O)O)C(=O)N[C@@H](CCCCN)C(=O)N[C@H](C(=O)NCC(=O)N[C@@H](CCC(N)=O)C(N)=O)C(C)C)[C@@H](C)CC [CA(25-37)CA(1-13)] |  |  | Lethal concentration, Sheep Red Cells (Table 2, footnote b: incubation overnight at 30° C.): > 300 µM |
| CC[C@H](C)[C@H](NC(=O)CNC(=O)[C@H](CCCNC(=N)N)NC(=O)CNC(=O)[C@H](CCSC)NC(=O)[C@H](CCCCN)NC(=O)[C@H](CCC(=O)O)NC(=O)[C@@H](NC(=O)[C@H](CCCCN)NC(=O)[C@H](CCCCN)NC(=O)[C@H](Cc1ccccc1)NC(=O)[C@@H](NC(=O)[C@H](CCCCN)NC(=O)[C@H](Cc1c[nH]c2ccccc12)NC(=O)[C@@H](N)CCCCN)C(C)C)[C@@H](C)CC)C(=O)NCC(=O)N[C@@H](C)C(=O)N[C@H](C(=O)N[C@@H](CC(C)C)C(=O)N[C@@H](CCCCN)C(=O)N[C@H](C(=O)N[C@@H](CC(C)C)C(=O)N[C@H](C(=O)N[C@H](C(=O)NCC(=O)N[C@@H](CC(C)C)C(N)=O)[C@@H](C)O)[C@@H](C)O)C(C)C)C(C)C [CB(1-13)M(1-13)] |  | 400 |  |
| CC[C@H](C)[C@H](NC(=O)CN)C(=O)NCC(=O)N[C@@H](C)C(=O)N[C@H](C(=O)N[C@@H](CC(C)C)C(=O)N[C@@H](CCCCN)C(=O)N[C@H](C(=O)N[C@@H](CC(C)C)C(=O)N[C@H](C(=O)N[C@H](C(=O)NCC(=O)N[C@@H](CC(C)C)C(=O)N[C@@H](CCCCN)C(=O)N[C@@H](Cc1c[nH]c2ccccc12)C(=O)N[C@@H](CCCCN)C(=O)N[C@@H](CC(C)C)C(=O)N[C@@H](Cc1ccccc1)C(=O)N[C@@H](CCCCN)C(=O)N[C@@H](CCCCN)C(=O)N[C@H](C(=O)N[C@@H](CCC(=O)O)C(=O)N[C@@H](CCCCN)C(=O)N[C@H](C(=O)NCC(=O)N[C@@H](CCC(N)=O)C(N)=O)C(C)C)[C@@H](C)CC)[C@@H](C)O)[C@@H](C)O)C(C)C)C(C)C [M(1-13)CA(1-13)] | 80 | 80 |  |
| CC[C@H](C)[C@H](NC(=O)CN)C(=O)NCC(=O)N[C@@H](C)C(=O)N[C@H](C(=O)N[C@@H](CC(C)C)C(=O)N[C@@H](CCCCN)C(=O)N[C@H](C(=O)N[C@@H](CC(C)C)C(=O)N[C@H](C(=O)N[C@H](C(=O)NCC(=O)N[C@@H](CC(C)C)C(=O)N[C@@H](CCCCN)C(=O)N[C@@H](Cc1c[nH]c2ccccc12)C(=O)N[C@@H](CCCCN)C(=O)N[C@@H](CC(C)C)C(=O)N[C@@H](Cc1ccccc1)C(=O)N[C@@H](CCCCN)C(=O)N[C@@H](CCCCN)C(=O)N[C@H](C(=O)N[C@@H](CCC(=O)O)C(=O)N[C@@H](CCCCN)C(=O)N[C@H](C(=O)NCC(=O)N[C@@H](CCC(N)=O)C(=O)N[C@@H](CC(N)=O)C(=O)N[C@H](C(=O)N[C@@H](CCCNC(=N)N)C(=O)N[C@@H](CC(=O)O)C(=O)NCC(=O)N[C@H](C(=O)N[C@H](C(=O)N[C@@H](CCCCN)C(=O)N[C@@H](C)C(N)=O)[C@@H](C)CC)[C@@H](C)CC)[C@@H](C)CC)C(C)C)[C@@H](C)CC)[C@@H](C)O)[C@@H](C)O)C(C)C)C(C)C [M(1-13)CA(1-22)] |  | 40 |  |
| CC[C@H](C)[C@H](NC(=O)CNC(=O)[C@H](CCC(N)=O)NC(=O)[C@H](CCC(N)=O)NC(=O)[C@H](CCCNC(=N)N)NC(=O)[C@H](CCCCN)NC(=O)[C@H](CCCNC(=N)N)NC(=O)[C@H](CCCCN)NC(=O)[C@@H](NC(=O)[C@H](Cc1c[nH]c2ccccc12)NC(=O)[C@H](CO)NC(=O)[C@@H](NC(=O)[C@@H](N)CC(C)C)[C@@H](C)CC)[C@@H](C)CC)C(=O)NCC(=O)N[C@@H](C)C(=O)N[C@H](C(=O)N[C@@H](CC(C)C)C(=O)N[C@@H](CCCCN)C(=O)N[C@H](C(=O)N[C@@H](CC(C)C)C(=O)N[C@H](C(=O)N[C@H](C(=O)NCC(=O)N[C@@H](CC(C)C)C(N)=O)[C@@H](C)O)[C@@H](C)O)C(C)C)C(C)C [M(16-26)M(1-13)] |  |  | improvement in red cell lysis concentration over natural melittin (240 μM versus 4-6 μM): 40-60 fold; Lethal concentration, Sheep Red Cells [2]: > 200 µM; concentration lytic to sheep red blood cells: > 240 µM |
| KWKLFKKAVLKVLTT-NH2 [CA(1-7)M(4-11)] | > 600 |  |  |
| KWKLFKKGAVLKVLT-NH2 [CA(1-7)M(3-10)] | > 600 |  |  |
| KWKLFKKGIGAVLKV-NH2 [CA(1-7)M(1-8)] | > 200 |  |  |
| KWKLFKKIEKVGQNIRDGGIGAVLKV-NH2 [CA(1-18)M(1-8)] |  | 600 |  |
| KWKLFKKIEKVGQNIRDGIGAVLKVL-NH2 [CA(1-17)M(1-9)] |  | 600 |  |
| KWKLFKKIGAVLKVL-NH2 [CA(1-7)M(2-9)] | > 600 |  |  |
| KWKLFKKIGIGAVLKVLT-NH2 [CA(1-8)M(1-10)] | > 600 |  |  |
| KWKLFKKLKVLTTGL-NH2 [CA(1-7)M(6-13)] | > 500 |  |  |
| KWKLFKKVLKVLTTG-NH2 [CA(1-7)M(5-12)] | > 500 |  |  |
